Experimental findings from patent publication US8071651B2, “5-amino-4-hydroxy-7-(imidazo [1,2-A] pyridin-6-ylmethyl)-8-methyl-nonamide derivatives and related compounds as renin inhibitors for the treatment of hypertension” (Novartis AG, priority 2005, dated 2011) are described below.

The assay addresses T1, renin (Homo sapiens, UniProt P00797).
T1 construct: This test measures the formation of angiotensin I in human plasma; from tissue; host or cells: human plasma
T1 sequence (P00797 67-406): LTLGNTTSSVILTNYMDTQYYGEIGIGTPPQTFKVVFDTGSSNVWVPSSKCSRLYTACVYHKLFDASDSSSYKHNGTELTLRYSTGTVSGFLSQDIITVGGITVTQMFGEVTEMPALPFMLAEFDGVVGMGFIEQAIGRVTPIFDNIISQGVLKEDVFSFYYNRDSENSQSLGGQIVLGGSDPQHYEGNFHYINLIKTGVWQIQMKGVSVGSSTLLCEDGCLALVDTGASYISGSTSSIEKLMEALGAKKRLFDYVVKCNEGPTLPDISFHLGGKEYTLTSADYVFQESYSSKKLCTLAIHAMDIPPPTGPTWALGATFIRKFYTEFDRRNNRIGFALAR
The experiment in a line: in vitro test of Nussberger et al.: formation of angiotensin I in human plasma, determined by radio-immunoassay. Particulars: concentration of inhibitor which reduces the formation of angiotensin I in human plasma by 50%. The class given is biochemical. How it is done:
The effect of renin inhibitors is detected inter alia experimentally by means of in vitro tests where the reduction in the formation of angiotensin I is measured in various systems (human plasma, purified human renin together with synthetic or natural renin substrate). The following in vitro test of Nussberger et al. (1987) J. Cardiovascular Pharmacol., Vol. 9, pp. 39-44, is used, inter alia. This test measures the formation of angiotensin I in human plasma. The amount of angiotensin I formed is determined in a subsequent radio-immunoassay. The effect of inhibitors on the formation of angiotensin I is tested in this system by adding various concentrations of these substances. The IC50 is defined as the concentration of the particular inhibitor which reduces the formation of angiotensin I by 50%. The compounds of the present invention show inhibitory effects in the in vitro systems at minimal concentrations of about 10^−6 to about 10^−10 mol/l.

What is called IC50 is the concentration at which inhibition is half-maximal. The low end stands for greater potency, the high end for weaker potency.

In turn, `COCCCCc1cc(CC(CC(N)C(O)CC(C(=O)NCC2CC23CCOCC3)C(C)C)C(C)C)cnc1OC` (centres unmarked) [Example 36HHHH] returned a concentration for half-maximal inhibition (IC50) of 2.9 nM.

`COCCCCc1cc(CC(CC(N)C(O)CC(C(=O)NCC2CCOCC2)C(C)C)C(C)C)cc(C)n1` (centres unmarked) [Example 32JJJ] registered a concentration for half-maximal inhibition (IC50) of 2.6 nM.

Take `COCCCCc1cc(CC(CC(N)C(O)CC(C(=O)NCC2C3COCC23)C(C)C)C(C)C)cnc1OC` (centres unmarked) [Example 36BBBB]: half-maximal inhibition (IC50) required 4.8 nM.

Consider `COCCCCc1cc(CC(CC(N)C(O)CC(C(=O)NC2C3COCC32)C(C)C)C(C)C)cnc1OC` (centres unmarked) [Example 36DDDD], for which the IC50 turned out to be 3.1 nM.

Molecule `COCCCCc1cc(CC(CC(N)C(O)CC(C(=O)NCC2CC23CCOCC3)C(C)C)C(C)C)cnc1OC` (centres unmarked) [Example 36IIII] had an IC50 of 3.5 nM.
